Source: publication PMC9017425, “Integrative Analysis of Pharmacokinetic and Metabolomic Profiles for Predicting Metabolic Phenotype and Drug Exposure Caused by Sotorasib in Rats” (Frontiers in Oncology, 2022)
Like-named read-outs stand apart in the source and are kept apart here.

Columns and labels:
[1] = parameters: method as in PMID 33957355; settings: mice, single oral 20 mg/kg; cited from earlier work
[2] = Working solution stability of sotorasib; type: physicochemical; settings: −80°C for 10 days, n = 6
Procedure: Stock solutions of sotorasib and IS were equipped using ACN at a concentration of 1.0 mg/ml and further diluted for the calibration standards and quality control (QC) samples at a final concentration of 500 µg/ml separately. The working IS solution was prepared in MeOH at a concentration of 10 ng/ml. The working calibration solutions of sotorasib were completed in dilution (MeOH/water = 1:1, v/v) to obtain concentrations of 5, 10, 20, 50, 100, 100, 200, 500, 1,000, 2,000, and 5,000 ng/ml. Similarly, the QC working solutions of analytes were prepared to obtain final concentrations of 10, 200, and 4,000 ng/ml. All solutions were stored in a −80°C freezer pending analysis. For the PK study, calibrations were made in blank rat plasma to achieve a nominal concentration range of 0.5–500 ng/ml. QC plasma samples were prepared in blank rat plasma at nominal concentrations of 1, 20, and 400 ng/ml. Stability was investigated at LQC and HQC concentrations in six replicates. The stability conditions incorporated the short-term (at ambient temperature for 24 h), freeze–thaw (−80°C to ambient temperature, three sequential cycles), post-preparation (autosampler, 24 h), and long-term (−80°C for 3 months) status. If the %Bias is within ±15%, the stability is considered acceptable.

[3] = Pharmacokinetic study of sotorasib in rats after oral administration (HPLC-MS/MS of plasma); type: in vivo; settings: male, Sprague-Dawley, rat
Procedure: For the PK study, a chromatographic system of Shimadzu LC-20ADXR (Kyoto, Japan) coupled with a mass spectrometer (QTRAP 5500; SCIEX, Concord, Canada) was utilized for chromatographic separation and mass quantitation ([19]). The column temperature was set to 40°C on a reversed-phase C18 column (50 mm × 2.1 mm i.d., 3.5 μm) (XBrige; Waters, Milford, MA, USA), and the total run time was 3.0 min. Both mobile phases contained 0.1% formic acid. Gradient elution was adopted to comply with the compounds’ baseline separation (0–0.1 min, 90% water phase; 0.1–1.2 min, 10% water phase; 1.2–2.2 min, 0% water phase; and 2.2–3.0 min, 90% water phase). The flow rate was fixed at 0.4 ml/min with an injection volume of 2 μl. A time-efficient washing procedure composed of MeOH/water/ACN/IPA (1:1:1:1, v/v/v/v) was applied during the entire analyses. Multiple reaction monitoring (MRM) was utilized with the following parameters: ion spray voltage, 5,500 V; temperature, 550°C; curtain gas, 20.0 psi; ion source, gas 1 at 55.0 psi; and turbo ion source, gas 2 at 55.0 psi. A proton adduct [M+H]^+ ion and double MRM transitions were used, which were set at m/z 561.4→317.1 (qualifier) and m/z 561.4→134.1 (quantifier) for sotorasib and at 237.0→194.1 for the IS.
During the PK study, all unknown plasma samples were mixed for 1 min and 20 μl aliquot of plasma was pipetted into an Eppendorf centrifuge tube. Protein precipitation was adopted for the preparation of the sample. After the addition of 10 μl IS working solution (10 ng/ml) and 80 μl MeOH, proteins were extracted by vortex mixing for approximately 30 s. The supernatant was centrifuged at 13,500 rpm for 10 min at 4°C. The extraction solutions were then pipetted into autosampler vials.
Six Sprague–Dawley rats (180–220 g, 8-week-old males; animal license: SCXK-2019-0008) were purchased from Beijing Vital River Laboratory Animal Technologies Co., Ltd. (Beijing, China). All rats were fed in a specific pathogen-free (SPF) conditioned room to allow acclimatization for 1 week. Animal experiments were implemented in line with the Guidelines for the Care and Use of Laboratory Animals, and animal ethics was approved by Beijing Chao-Yang Hospital, Capital Medical University. Rats were orally administered sotorasib dissolved with 1% Tween-80 and 2% hydroxypropyl methylcellulose (HPMC) in water at a dose of 10 mg/kg. Biological samples (approximately 500 μl) were collected from ophthalmic veins into heparin-anticoagulated collection tubes before administration and at 15 min, 30 min, and 1, 1.5, 2, 2.5, 3, 4, and 8 h after administration. Plasma samples were acquired by direct centrifugation at 3,500 rpm for 10 min at 4°C.
Raw data files were processed and checked using Analyst 1.6.3 and MultiQuant 3.0.1 (SCIEX, Concord, Canada). The concentrations of the analytes were calculated according to the calibration curve. Pharmacokinetic parameters, such as C max and the area under the curve (AUC), were calculated using Phoenix WinNonLin software (Pharsight 8.3, Mountain View, CA, USA). Pearson’s correlation was employed to investigate the correlation between the metabolomic data and PK parameters using IBM SPSS 26.0 (Armonk, NY, USA). SIMCA-P software (v14.1; Umetric, Umeå, Sweden) was employed to build mathematical models, including unsupervised principal component analysis (PCA), supervised orthogonal projection to latent structures discriminant analysis (OPLS-DA), and partial least squares (PLS). Compounds with values of variable importance in the projections (VIP) >1 and statistical significance of p < 0.05 were selected for further identification and metabolic pathway analysis. One hundred or 200 random permutation tests were employed to examine overfitting and random effects, which can assess the predictive ability of the model. Meanwhile, significant variables with p < 0.05 and fold change (FC) >2 or <0.5 were considered potential biomarkers. […]

[4] = parameters: method as in PMID 33283304; settings: oral administration, 50 mg/kg; cited from earlier work
[5] = Stability of sotorasib in rat plasma QC samples under different storage conditions; type: in vitro ADME; settings: for Post-preparation stability, measured concentration Mean ± SD / Room temperature stability, measured concentration Mean ± SD / Freeze–thaw stability, measured concentration Mean ± SD / Long-term stability, measured concentration Mean ± SD: n = 6; for Room temperature stability, measured concentration Mean ± SD: rat plasma, ambient temperature; for Freeze–thaw stability, measured concentration Mean ± SD: three cycles −80°C to ambient temperature; for Long-term stability, measured concentration Mean ± SD: −80°C for 3 months
From the text: Stability was investigated at LQC and HQC concentrations in six replicates. […] If the %Bias is within ±15%, the stability is considered acceptable.

[6] = rats, 10 mg/kg, n = 6, mean ± SD

## C=CC(=O)N1CCN(c2nc(=O)n(-c3c(C)ccnc3C(C)C)c3nc(-c4c(O)cccc4F)c(F)cc23)[C@@H](C)C1 [Sotorasib]
[1]
  AUC0–4: 3,766 ± 896 ng·h/ml
  C max: 4,231 ± 1,208 ng/ml
  T max: 12.6 ± 3.6 min
  t 1/2: 36 ± 3.6 min
  time in which C max was achieved: < 15 min
[2]; nominal 1 ng/ml
  Working solution stability, measured concentration Mean ± SD: 1.034 ± 0.08 ng/mL
[2]; nominal 400 ng/ml
  Working solution stability, measured concentration Mean ± SD: 409.37 ± 37.98 ng/mL
[3]; 10-mg/kg dose, 15 min after administration, single sample, read-out: plasma concentration of an unknown sample
  concentration at 15 min: 298 ng/mL
[3]; [6]
  AUC(0-inf): 463 ± 167 ng·h/mL
  AUC(0-t): 457 ± 165 ng·h/mL
  Cmax: 227 ± 98.8 ng/mL
  half-life: 74.4 ± 13.2 min
[3]; rats, 10 mg/kg, n = 6, mean ± SD, read-out: CL_F (apparent clearance) (converted)
  CL/F: 400 mL/min/kg
[3]; rats, 10 mg/kg, n = 6, mean ± SD, read-out: MRT (mean residence time)
  MRT: 113 ± 10.8 min
[3]; rats, 10 mg/kg, n = 6, mean ± SD, read-out: Vz_F (apparent volume of distribution)
  Vd/F: 43.3 ± 17.9 L/kg
[3]; rats, 10 mg/kg, n = 6, median (range)
  Tmax: 30 min
[4]
  AUC0–∞: 170 ng·h/mL
  C max: 123 ng/mL
  T max: 15 min
  t 1/2: 114 min
[5]; ambient temperature 6 h, three freeze–thaw cycles, autosampler 24 h, working solution −80°C 10 days, −80°C 3 months
  stability under several storage conditions in plasma or in solution: stable
[5]; nominal 1 ng/ml, autosampler 24 h
  Post-preparation stability, measured concentration Mean ± SD: 1.07 ± 0.06 ng/mL
[5]; nominal 1 ng/ml
  Room temperature stability, measured concentration Mean ± SD: 1.03 ± 0.10 ng/mL
  Freeze–thaw stability, measured concentration Mean ± SD: 1.06 ± 0.07 ng/mL
  Long-term stability, measured concentration Mean ± SD: 1.01 ± 0.07 ng/mL
[5]; nominal 400 ng/ml, autosampler 24 h
  Post-preparation stability, measured concentration Mean ± SD: 441.20 ± 10.76 ng/mL
[5]; nominal 400 ng/ml
  Room temperature stability, measured concentration Mean ± SD: 434.00 ± 8.07 ng/mL
  Freeze–thaw stability, measured concentration Mean ± SD: 448.60 ± 6.19 ng/mL
  Long-term stability, measured concentration Mean ± SD: 399.67 ± 20.10 ng/mL
